Test results reported in patent US20230256047A1, “METHODS AND COMPOSITIONS FOR THE TREATMENT OF MUSCULAR DYSTROPHY” (STEALTH BIOTHERAPEUTICS INC., priority 2020, published 2023).
Square brackets hold non-standard residues; d marks the D form. Peptide text beside a SMILES is read from it. Dmt = Cc1cc(O)cc(C)c1C[C@H](N)C(=O)O; Orn = NCCC[C@H](N)C(=O)O

Tests used:
Format in all cases: in vivo
D2-mdx mice = experiment: Echocardiography in D2-mdx mouse model; conditions: treated vs untreated D2-mdx mice; daily IP 1.0 or 5.0 mg/kg for 10-15 weeks
Experimental: Animals and Care: The DBA2 (a.k.a. D2-mdx) congenic strain of mdx mouse will be used for these studies. DBA/2J mice will be used as the wildtype control group. Animals will be obtained from appropriate sources (e.g. Jackson Labs). Animals will be housed at a density of up to five males or five females per cage under specific pathogen-free conditions in rooms with a 12-h light/12-h dark cycle at a temperature of 18-23° C. and 40-60% humidity. All experiments involving mice in this study will be performed in accordance with all applicable laws and regulations.
Echocardiography: In order to assess the cardiac function of mice in vivo, echocardiography will be performed on sedated mice. Mice will first be anesthetized (e.g. with 5% isoflurane mixed with 100% oxygen at 1.0 1/min flow) and then maintained under anesthesia (e.g. with 1.5% isoflurane/oxygen flow. Ophthalmic ointment can be placed on the eyes of the animals to prevent drying of the cornea while the mouse was anesthetized and tested. After anesthetic induction, the animals will be placed on a thermostatically controlled heated platform, where anesthesia can be maintained by delivery through a close-fitting facemask. A heating lamp can also be used to keep the heart rate and body temperature constant at physiological status during echocardiography.
During the examination, the animal’s heart rate will be monitored through the use of an electrocardiograph. The mouse’s heart rate and body temperature will be monitored continuously during the scanning. Echocardiography will be performed using an appropriate apparatus (e.g. Vevo770 ultrasound machine (VisualSonics, Toronto, Canada). The 2-D (B-mode), M-mode and Doppler images will be acquired from a modified parasternal long axis view, parasternal short axis view, suprasternal notch view and apical three-chamber view. The heart rate (BPM), fractional shortening, EF, stroke volume and cardiac output will be obtained for cardiac function assessment using measurements from the modified parasternal short axis view in the M-mode. Qualitative and quantitative measurements will be recorded using offline workstation software, and post-imaging analysis will be performed.
Study Design • 1. N=40-60 mice total assigned to following groups • a. Wildtype control - untreated, n=10-15 • b. mdx, vehicle treated, n=10-15 • c. mdx, daily IP elamipretide 1.0 mg/kg, n=10-15 • d. mdx, daily IP elamipretide 5.0 mg/kg, n=10-15 • 2. Dosing to begin at 4-6 weeks of age and continue for 10-15 weeks • a. Weekly retroorbital eye bleeds will be taken to provide serum for biomarker analysis • 3. In-life endpoints • a. Weekly body weight will be taken • b. Measurements of weekly voluntary wheel running will be determined • i. Total distance (m) • ii. Normalized distance (m/kg) • c. Echocardiogram (at least at week 18 & end of study but possibly more often, including possibly bi-monthly). The following parameters will be accessed. • i. Ejection fraction (%) • ii. Fractional shortening (%) • iii. Stroke volume (uL) • iv. Cardiac output (mL) • v. Heart rate (bpm) • 4. Endpoints post-necropsy • a. Serum analysis for creatine kinase • b. Histology of heart and inflammation and fibrosis

DMD KO rabbits = experiment: Body weight and survival in DMD KO rabbit model; conditions: treated DMD KO rabbits vs untreated control group of DMD KO rabbits; 0.5 to 5 mg/kg once daily i.p., approximately 3-5 months
Source text: Rabbits: The DMD KO rabbits used in this study will be obtained from the Laboratory Animal Center of Jilin University or prepared as described in Sui et al., Disease Models & Mechanisms 11 (2018). […] New Zealand rabbits (WT) will be used as controls.
Body Weight & Survival Curve: The body weight of age- and sex-matched WT and DMD KO rabbits will be measured biweekly. All data will be expressed as the mean±s.e.m., and a minimum of three individual animals of each genotype will be used in all experiments.
Study Design: At approximately 3-4 weeks of age, rabbits will be administered peptide (or a mixture of peptides) dissolved in sterile saline in dose(s) ranging from 0.5 to 5 mg/kg, once daily via intraperitoneal (i.p.) injection. The control group will be given placebo (sterile saline). Rabbits will be treated daily with peptide (or a mixture of peptides) or saline vehicle control, with treatment lasting approximately 3-5 months. For example, the peptide used could be a peptide of Formula A-1 (i.e. H-D-Arg-2′6′-Dmt-Lys-Phe-NH2). Echocardiograms will be collected monthly until animals are approximately 4-6 months of age or end of life. At the time of death, tissues will be harvested and variables described above will be collected.

[1] = tested on: Subjects suspected of having or diagnosed as having DMD or BMD and taking corticosteroids and/or Eteplirsen, Golodirsen or Casimersen; experiment: Treatment of cardiomyopathy in human subjects with DMD or BMD taking corticosteroids and/or Eteplirsen, Golodirsen or Casimersen; conditions: for signs or symptoms of cardiomyopathy associated with DMD or BMD: human subjects taking corticosteroids and/or Eteplirsen, Golodirsen or Casimersen, daily subcutaneous 0.5-5.0 mg/kg/day or weekly intravenous 0.05-1.0 mg/kg/hr. for up to 4 hours; for effect of combination with corticosteroids and/or Eteplirsen, Golodirsen or Casimersen on signs or symptoms of cardiomyopathy: human subjects, compared to peptide alone, or corticosteroids and/or Eteplirsen, Golodirsen or Casimersen alone
Experimental: Subjects suspected of having or diagnosed as having DMD or BMD and taking corticosteroids and/or Eteplirsen (Exondys 51®), Golodirsen (Vyondys 53™)or Casimersen (Amondys 45™) are separately, sequentially, or simultaneously subcutaneously administered a daily dose of H-D-Arg-2′6′-Dmt-Lys-Phe-NH2 or H-D-Arg-2′6′-Dmt-Lys-Phe-OH (e.g. with 0.5-5.0 mg/kg/day) or a weekly intravenous administration of H-D-Arg-2′6′-Dmt-Lys-Phe-NH2 or H-D-Arg-2′6′-Dmt-Lys-Phe-OH (e.g. with 0.05-1.0 mg/kg/hr. for up to 4 hours). Subjects will be regularly evaluated (e.g., weekly, bi-weekly, monthly, etc.) for the presence and/or severity of signs and symptoms of cardiomyopathy associated with DMD or BMD including, but not limited to, impaired left ventricular dynamics, e.g., reduced ejection fraction, reduced shortening fraction, reduced stroke volume, and/or reduced cardiac output, and elevated levels serum biomarkers associated with myocardial fibrosis, such as, e.g., elevated levels of carboxy terminal peptide of procollagen type I (PICP) and/or amino terminal propeptide of procollagen type III. Treatments are maintained at least until such a time as one or more signs or symptoms of cardiomyopathy associated with DMD or BMD are ameliorated or eliminated. The study may be conducted in a randomized withdrawal trial (e.g. randomized, double-blind, placebo-controlled withdrawal trial) to assess the impact of the peptide on the subjects followed by the impact of its withdrawal relative to a control group still receiving the peptide.

[2] = tested on: Subjects suspected of having or diagnosed as having DMD or BMD; experiment: Treatment of cardiomyopathy in human subjects diagnosed with muscular dystrophy; conditions: daily subcutaneous 0.5-5.0 mg/kg/day or weekly intravenous 0.05-1.0 mg/kg/hr. for up to 4 hours
Experimental: Subjects suspected of having or diagnosed as having DMD or BMD receive daily subcutaneous administration of H-D-Arg-2′6′-Dmt-Lys-Phe-NH2 or H-D-Arg-2′6′-Dmt-Lys-Phe-OH (e.g. with 0.5-5.0 mg/kg/day). Alternatively, subjects suspected of having or diagnosed as having DMD or BMD receive weekly intravenous administration of H-D-Arg-2′6′-Dmt-Lys-Phe-NH2 or H-D-Arg-2′6′-Dmt-Lys-Phe-OH (e.g. with 0.05-1.0 mg/kg/hr. for up to 4 hours). In some cases, the subjects could be co-administered a drug known to increase or correct the production of dystrophin in the subject, such as a phosphorodiamidate morpholino oligomer (PMO) such as Eteplirsen (Exondys 51®), Golodirsen (Vyondys 53™) or Casimersen (Amondys 45™) or a PPMO. Subjects will be regularly evaluated (e.g., weekly, bi-weekly, monthly, etc.) for the presence and/or severity of signs and symptoms of cardiomyopathy associated with DMD or BMD including, but not limited to, impaired left ventricular dynamics, e.g., reduced ejection fraction, reduced shortening fraction, reduced stroke volume, and/or reduced cardiac output, and elevated levels serum biomarkers associated with myocardial fibrosis, such as, e.g., elevated levels of carboxy terminal peptide of procollagen type I (PICP) and/or amino terminal propeptide of procollagen type III. […]

With `Cc1cc(O)cc(C)c1C[C@H](NC(=O)[C@H](N)CCCNC(=N)N)C(=O)N[C@@H](CCCCN)C(=O)N[C@@H](Cc1ccccc1)C(N)=O` [Compound A-1, H-D-Arg-2′6′-Dmt-Lys-Phe-NH2] (H-[dR][Dmt]KF-NH2) as the compound, how does the cardiac output (D2-mdx mice) read?
The cardiac output was “higher”.

And the “fractional shortening (FS)” value (D2-mdx mice)?
Its value is “higher”.

What about the lifespan (DMD KO rabbits) of the same compound?
Its lifespan is “statistically significant increase in lifespan”.

What about the “signs or symptoms of cardiomyopathy associated with DMD or BMD” value (“signs or symptoms … with DMD or BMD” below) [1] of the same compound?
Its value is “delayed or reduced severity or elimination”.

And the “effect of combination with corticosteroids and/or Eteplirsen, Golodirsen or Casimersen on signs or symptoms of cardiomyopathy” value [1]?
Its value is “synergistic effects”.

And the “signs or symptoms … with DMD or BMD” value [2]?
Its value is “reduced severity or elimination”.

For `Cc1cc(O)cc(C)c1C[C@H](NC(=O)[C@H](N)CCCNC(=N)N)C(=O)N[C@@H](CCCCN)C(=O)N[C@@H](Cc1ccccc1)C(=O)O` [Compound A-2, H-D-Arg-2′6′-Dmt-Lys-Phe-OH] (H-[dR][Dmt]KF-OH), which cardiac output (D2-mdx mice) is on record?
Its cardiac output is “higher”.

What about the “fractional shortening (FS)” value (D2-mdx mice) of the same compound?
Its value is “higher”.

And the lifespan (DMD KO rabbits)?
The lifespan was “statistically significant increase in lifespan”.

And the “signs or symptoms … with DMD or BMD” value [1]?
Its value is “delayed or reduced severity or elimination”.

What about the “effect of combination with corticosteroids and/or Eteplirsen, Golodirsen or Casimersen on signs or symptoms of cardiomyopathy” value [1] of the same compound?
The value was “synergistic effects”.

What about the “signs or symptoms … with DMD or BMD” value [2] of the same compound?
Its value is “reduced severity or elimination”.

With `Cc1cc(O)cc(C)c1C[C@H](NC(=O)[C@H](N)CCCNC(=N)N)C(=O)N[C@@H](CCCNC(=N)N)C(=O)N[C@@H](Cc1ccccc1)C(N)=O` [Compound A-3] (H-[dR][Dmt]RF-NH2) as the compound, how does the cardiac output (D2-mdx mice) read?
Its cardiac output is “higher”.

What about the “fractional shortening (FS)” value (D2-mdx mice) of the same compound?
The value was “higher”.

What about the lifespan (DMD KO rabbits) of the same compound?
The lifespan was “statistically significant increase in lifespan”.

Which results are given for `Cc1cc(O)cc(C)c1C[C@H](NC(=O)[C@H](N)CCCNC(=N)N)C(=O)N[C@@H](CCCNC(=N)N)C(=O)N[C@@H](Cc1ccccc1)C(=O)O` [Compound A-4] (H-[dR][Dmt]RF-OH)?
cardiac output (D2-mdx mice): higher; fractional shortening (FS) (D2-mdx mice): higher; lifespan (DMD KO rabbits): statistically significant increase in lifespan

What does the source list for `Cc1cc(O)cc(C)c1C[C@H](NC(=O)[C@H](N)CCCNC(=N)N)C(=O)N[C@@H](CCCN)C(=O)N[C@@H](Cc1ccccc1)C(N)=O` [Compound A-5] (H-[dR][Dmt][Orn]F-NH2)?
cardiac output (D2-mdx mice): higher; fractional shortening (FS) (D2-mdx mice): higher; lifespan (DMD KO rabbits): statistically significant increase in lifespan

Which cardiac output (D2-mdx mice) does the source give for `Cc1cc(O)cc(C)c1C[C@H](NC(=O)[C@H](N)CCCNC(=N)N)C(=O)N[C@@H](CCCN)C(=O)N[C@@H](Cc1ccccc1)C(=O)O` [Compound A-6] (H-[dR][Dmt][Orn]F-OH) here?
The cardiac output was “higher”.

And the “fractional shortening (FS)” value (D2-mdx mice)?
Its value is “higher”.

What about the lifespan (DMD KO rabbits) of the same compound?
The lifespan was “statistically significant increase in lifespan”.

`N=C(N)NCCC[C@@H](N)C(=O)N[C@@H](Cc1ccc(O)cc1)C(=O)N[C@@H](CCCCN)C(=O)N[C@@H](Cc1ccccc1)C(N)=O` [Compound A-7] (H-[dR]YKF-NH2) was tested. Which cardiac output (D2-mdx mice) did it give?
Its cardiac output is “higher”.

What about the “fractional shortening (FS)” value (D2-mdx mice) of the same compound?
The value was “higher”.

And the lifespan (DMD KO rabbits)?
Its lifespan is “statistically significant increase in lifespan”.

What does the source list for `N=C(N)NCCC[C@@H](N)C(=O)N[C@@H](Cc1ccc(O)cc1)C(=O)N[C@@H](CCCCN)C(=O)N[C@@H](Cc1ccccc1)C(=O)O` [Compound A-8] (H-[dR]YKF-OH)?
cardiac output (D2-mdx mice): higher; fractional shortening (FS) (D2-mdx mice): higher; lifespan (DMD KO rabbits): statistically significant increase in lifespan
